The record followed here is patent US8084449B2, “Dual pharmacophores—PDE4-muscarinic antagonistics” (Glaxo Group Limited, priority 2008, dated 2011).

The structures appear in SMILES notation.

The test system of data set [1] is human M1, M2 and M3 ACh receptors stably expressed in CHO cells. The data set is described as follows: Calcium mobilization (FLIPR) IC50 determination for antagonists: inhibition of ACh induced muscarinic receptor activation. Conditions: EC80 concentration of ACh, active if IC50 of between 33 uM and 10 nM or less, receptor subtype not specified for the statement. It is filed as cell-based. The source says: Studies to determine the effectiveness of antagonists to cause blockade of functional intracellular calcium fluxes following agonist (ACh) treatment of cloned human receptors. This system is used for characterizations of antagonist-receptor interactions using four distinct variations of the FLIPR methodology: (a) potency: IC50 determination, (b) potency: pA2 determination, (c) reversibility of antagonist-receptor interaction, or (d) confirmation of no functional agonist activity.
Cell Source The human M1-M3 receptors are cloned and stably expressed in Chinese Hamster Ovary (CHO) cells. The M2 receptors are co-expressed with the chimeric G protein, Gqi5.
Method of Culture: CHO-M1, CHO-Gqi5-M2 and CHO-M3 cells are cultured to confluence at 37° C. in a humidified incubator with 5% CO2/95% air. […] The emitted fluorescence from all 96 wells is measured simultaneously using a cooled CCD camera. […]
Cell plating: A microtiter plate based calcium mobilization FLIPR (Fluorometric Imaging Plate Reader, Molecular Devices, Sunnyvale Calif., [Schroeder K S, Neagle, B D. FLIPR: a new instrument for accurate, high throughput optical screening. J. Biomol. Screen. 1996; 1:75.]) assay is used for the functional characterization of compounds against M1, M2 (w/Gqi5) and M3 ACh receptors stably expressed in CHO cells. […]
On the technique in general: A change in cytosolic calcium serves as a functional read-out for many receptors and channels.

One may read the melting point as the temperature of the solid-liquid transition. Molecule `NC(=O)c1ccc(Cl)c(Br)c1` yielded a melting point of 146 to 147 °C.

Turning to `CCc1nc2c(cnn2CC)c(NC2CCOCC2)c1CNC(=O)c1cccc(C(=O)NCc2ccc(OC)c(-c3cccc(CN4CCN[C@@H](C)C4)c3)c2)n1` [Example 157, N-{[1,6-Diethyl-4-(tetrahydro-2H-pyran-4-ylamino)-1H-pyrazolo[3,4-b]pyridin-5-yl]methyl}-N′-[(6-(methyloxy)-3′-{[(3S)-3-methyl-1-piperazinyl]methyl}-3-biphenylyl)methyl]-2,6-pyridinedicarboxamide], the “IC50 (compound pretreatment concentration which inhibits 50% of the ACh induced response), activity rating” value in data set [1] is recorded as “most active”.
